Columns and labels:
Type in all cases: cell-based
hNav1.1 [1] = target: T1, hNav1.1 (Homo sapiens, UniProt P35498, F1774A); assay: automated whole-cell voltage clamp
T1 construct: gene SCN1A; full-length alpha-subunit in HEK-293 cells with human beta1; with Sodium channel regulatory subunit beta-1

hNav1.6 [2] = target: T2, hNav1.6 (Homo sapiens, UniProt Q9UQD0); assay: automated whole-cell voltage clamp
T2 construct: gene SCN8A; full-length alpha-subunit in HEK-293 cells with human beta1; with Sodium channel regulatory subunit beta-1

hNav1.5 = target: T3, hNav1.5 (Homo sapiens, UniProt Q14524); assay: automated whole-cell voltage clamp (Qube-384)
T3 construct: gene SCN5A; full-length alpha-subunit in HEK-293 cells with human beta1; with Sodium channel regulatory subunit beta-1

hNav1.1 [3] = target: T4, hNav1.1 (Homo sapiens, UniProt P35498); assay: automated whole-cell voltage clamp
T4 construct: gene SCN1A; full-length alpha-subunit in HEK-293 cells with human beta1; with Sodium channel regulatory subunit beta-1

hNav1.4 = target: T5, hNav1.4 (Homo sapiens, UniProt P35499); assay: automated whole-cell voltage clamp (Qube-384)
T5 construct: gene SCN4A; full-length alpha-subunit in HEK-293 cells with human beta1; with Sodium channel regulatory subunit beta-1

hNav1.2 = target: T6, hNav1.2 (Homo sapiens, UniProt Q99250); assay: manual whole-cell patch clamp
T6 construct: gene SCN2A; full-length alpha-subunit in HEK-293 cells with human beta1; with Sodium channel regulatory subunit beta-1

NaChBac = target: T7, NaChBac (Halalkalibacterium halodurans, UniProt Q9KCR8); assay: whole-cell voltage clamp
T7 construct: gene BH1501; homotetrameric bacterial channel expressed in HEK-293 cells (construct not described)
T7 sequence (Q9KCR8 1-274): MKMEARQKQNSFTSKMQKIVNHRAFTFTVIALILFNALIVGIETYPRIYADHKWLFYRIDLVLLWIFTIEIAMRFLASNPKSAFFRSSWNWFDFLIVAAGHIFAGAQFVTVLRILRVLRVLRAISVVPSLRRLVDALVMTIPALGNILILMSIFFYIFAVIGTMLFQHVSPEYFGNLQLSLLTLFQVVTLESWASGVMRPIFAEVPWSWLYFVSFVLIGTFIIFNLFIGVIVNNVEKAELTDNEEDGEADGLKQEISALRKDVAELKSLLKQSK

mNav1.6 = target: T8, mNav1.6 (Mus musculus, UniProt Q9WTU3); assay: automated whole-cell voltage clamp (Qube-384)
T8 construct: gene Scn8a; full-length mouse alpha-subunit in HEK-293 cells with human beta1; with Sodium channel regulatory subunit beta-1 (human)

hNav1.3 = target: T9, hNav1.3 (Homo sapiens, UniProt Q9NY46); assay: automated whole-cell voltage clamp (Qube-384)
T9 construct: gene SCN3A; full-length alpha-subunit in HEK-293 cells with human beta1; with Sodium channel regulatory subunit beta-1

hNav1.6 [4] = target: T10, hNav1.6 (Homo sapiens, UniProt Q9UQD0, N1768D); assay: automated whole-cell voltage clamp
T10 construct: gene SCN8A; full-length alpha-subunit in HEK-293 cells with human beta1; with Sodium channel regulatory subunit beta-1

With `C=C(C)[C@@H]1CCC(C)=C[C@H]1c1c(O)cc(CCCCC)cc1O` [cannabidiol] the IC50 (hNav1.1 [1]) was 4800 ± 200 nM, the IC50 (hNav1.6 [2]) was 3000 ± 100 nM and the IC50 (hNav1.5) was 3800 ± 200 nM. For the same compound, the IC50 (hNav1.1 [3]) was 2500 ± 200 nM, the IC50 (hNav1.4) was 1900 ± 100 nM and the IC50 (hNav1.2) was 1300 ± 100 nM. For the same compound, the IC50 (NaChBac) was 1500 ± 200 nM, the IC50 (mNav1.6) was 2400 ± 100 nM and the IC50 (hNav1.3) was 3300 ± 100 nM. For the same compound, the IC50 (hNav1.6 [4]) was 10000 ± 700 nM.
For `CCCCNc1ccc(C(=O)OCCN(C)C)cc1` [tetracaine], the IC50 (hNav1.1 [1]) was roughly 44100 nM and the IC50 (hNav1.1 [3]) was 1600 ± 100 nM.

— PMC6204917, “Inhibitory effects of cannabidiol on voltage-dependent sodium currents” (The Journal of Biological Chemistry, 2018)
